The values that follow come from US10889573B2, “Anthelmintic quinoline-3-carboxamide derivatives” (Bayer Animal Health GMBH, priority 2016, dated 2021).

In data set [1] the test system is Dirofilaria immitis microfilariae. The data set is described as follows: In vitro assay 3: Dirofilaria immitis microfilariae (DIROIM L1), motility. The following applies: 72 h, read-out: EC50 (reduction of motility), 72 h incubation.
Data set [2] concerns Cooperia curticei. The note with it: Cooperia curticei, 120 h, read-out: activity (larval mortality).
Description: In Vitro Assay 6: Cooperia curticei (COOPCU L3)
Solvent: dimethyl sulfoxide
Approximately 40 nematode larvae (Cooperia curticei) are transferred into a test tube containing the compound solution.
After 5 days percentage of larval mortality is recorded. 100% efficacy means all larvae are killed; 0% efficacy means no larvae are killed.
The subject of data set [3] is Haemonchus contortus. The following applies: 120 h, read-out: activity (larval mortality).
Description: In Vitro Assay 7: Haemonchus contortus (HAEMCO L3)
Solvent: dimethyl sulfoxide
Approximately 40 larvae of the red stomach worm (Haemonchus contortus) are transferred into a test tube containing compound solution.
After 5 days the percentage of larval mortality is recorded. 100% efficacy means all larvae are killed, 0% efficacy means no larvae are killed.
Data set [4] concerns Nippostrongylus brasiliensis. The experiment in a line: In vitro assay 2: Nippostrongylus brasiliensis (NIPOBR), acetylcholine esterase readout. The following applies: read-out: activity (reduction of AChE compared to negative control); for inhibition at 1 µg/mL: 1 μg/ml; for inhibition at 10 µg/mL: 10 μg/ml. The method in brief:
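Readout was acetylcholine esterase activity released into the medium, compared with negative control, after exposing adult worms to compounds at final 10 ppm (10 μg/ml) or 1 ppm (1 μg/ml). Worms were first washed in antibiotic/amphotericin B-containing saline; compounds were dissolved in DMSO.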

Data set [5] in a line: log P by HPLC on reversed phase columns (Method L0). The following applies: for logP (Method L0)^[a]: HPLC on reversed phase columns.
Description: Measurement of log P values was performed according to EEC directive 79/831 Annex V.A8 by HPLC (High Performance Liquid Chromatography) on reversed phase columns with the following methods: • ^[a] log P value is determined by measurement of LC-UV, in an acidic range, with 0.1% formic acid in water and acetonitrile as eluent (linear gradient from 10% acetonitrile to 95% acetonitrile). • ^[b] log P value is determined by measurement of LC-UV, in a neutral range, with 0.001 molar ammonium acetate solution in water and acetonitrile as eluent (linear gradient from 10% acetonitrile to 95% acetonitrile).
Calibration was done with straight-chain alkan-2-ones (with 3 to 16 carbon atoms) with known log P values (measurement of log P values using retention times with linear interpolation between successive alkanones).
The target of data set [6] is C. elegans Slo-1a (Caenorhabditis elegans, UniProt Q95V25). The following applies: pE50 (negative decadic logarithm of EC50), CHO cells expressing C. elegans Slo-1a, voltage sensitive dye.

pEC50: −log10 of the molar value.

In general, EC50 refers to the concentration that produces a half-maximal response. One may read the mortality as the share of the test organisms that died. One may read the chromatographic logP as lipophilicity estimated from chromatographic retention. Lower therefore signals a more hydrophilic compound. A word on the pEC50: it is the negative decadic logarithm of the EC50, by convention in mol/L. High values mean a small EC50, low ones a large EC50.

C. elegans Slo-1a, sequence (Q95V25 whole entry): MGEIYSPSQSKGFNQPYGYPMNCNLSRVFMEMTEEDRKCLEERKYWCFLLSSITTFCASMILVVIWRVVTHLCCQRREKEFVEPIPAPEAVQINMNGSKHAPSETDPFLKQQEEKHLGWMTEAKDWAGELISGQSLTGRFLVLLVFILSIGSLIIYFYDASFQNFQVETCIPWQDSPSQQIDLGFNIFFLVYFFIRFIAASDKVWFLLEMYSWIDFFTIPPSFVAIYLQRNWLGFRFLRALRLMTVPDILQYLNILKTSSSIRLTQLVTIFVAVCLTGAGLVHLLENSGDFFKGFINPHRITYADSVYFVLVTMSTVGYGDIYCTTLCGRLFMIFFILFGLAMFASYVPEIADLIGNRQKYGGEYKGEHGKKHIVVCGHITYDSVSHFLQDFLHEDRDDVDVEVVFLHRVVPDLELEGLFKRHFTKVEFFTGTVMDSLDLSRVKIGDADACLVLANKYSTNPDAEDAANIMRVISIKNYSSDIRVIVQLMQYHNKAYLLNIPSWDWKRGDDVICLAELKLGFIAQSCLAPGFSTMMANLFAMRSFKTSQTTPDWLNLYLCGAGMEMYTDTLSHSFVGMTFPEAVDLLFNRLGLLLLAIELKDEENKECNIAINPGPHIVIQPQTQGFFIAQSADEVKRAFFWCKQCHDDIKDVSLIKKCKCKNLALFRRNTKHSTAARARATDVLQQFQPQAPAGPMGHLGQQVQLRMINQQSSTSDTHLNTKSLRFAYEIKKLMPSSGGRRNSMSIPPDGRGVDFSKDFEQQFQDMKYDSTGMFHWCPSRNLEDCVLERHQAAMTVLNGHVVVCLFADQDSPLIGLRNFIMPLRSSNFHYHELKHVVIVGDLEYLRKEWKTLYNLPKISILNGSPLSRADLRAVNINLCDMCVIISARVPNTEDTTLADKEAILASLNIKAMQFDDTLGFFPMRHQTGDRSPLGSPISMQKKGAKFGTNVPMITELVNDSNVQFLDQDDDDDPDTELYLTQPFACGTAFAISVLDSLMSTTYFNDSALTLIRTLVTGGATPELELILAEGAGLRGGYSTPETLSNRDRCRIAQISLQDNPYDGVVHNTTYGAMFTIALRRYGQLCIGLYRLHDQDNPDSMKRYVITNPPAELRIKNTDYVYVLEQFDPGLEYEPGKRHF

For `O=C(N[C@H]1CCOc2ccccc21)c1cnc2c(-c3cc(Cl)cc(Cl)c3)cccc2c1N1CCC1` [Example 135, 4-(azetidin-1-yl)-8-(3,5-dichlorophenyl)-N-[(4S)-3,4-dihydro-2H-chromen-4-yl]quinoline-3-carboxamide], in data set [1], the EC50 was less than 1 µg/mL. The mortality at 20 ppm in data set [2] stood at 80%. For the same compound, in data set [3], the mortality at 4 ppm was 90% and the mortality at 20 ppm came to 100%. In data set [4], the inhibition at 1 µg/mL was greater than 80% and the inhibition at 10 µg/mL was greater than 80%. The compound also returned a chromatographic logP in data set [5] of 1.9. In addition, the pEC50 in data set [6] was greater than 8.50.

Consider `CCOC(=O)CN(C)c1c(C(=O)N[C@H]2CCOc3ccccc32)cnc2c(-c3cc(Cl)cc(Cl)c3)cccc12` [Example 137, ethyl N-{8-(3,5-dichlorophenyl)-3-[(4S)-3,4-dihydro-2H-chromen-4-ylcarbamoyl]quinolin-4-yl}-N-methylglycinate], for which the EC50 in data set [1] is less than 1 µg/mL. For the same compound, the mortality at 20 ppm in data set [3] turned out to be 80%. Further, in data set [4], the inhibition at 1 µg/mL is greater than 80% and the inhibition at 10 µg/mL is greater than 80%. In data set [5], this compound returned a chromatographic logP of 4.8. The same compound gave a pEC50 in data set [6] greater than 8.50.

Regarding `O=C(N[C@H]1CCOc2ccccc21)c1cnc2c(-c3cc(Cl)cc(Cl)c3)cccc2c1-n1ccnn1` [Example 188, 8-(3,5-dichlorophenyl)-N-[(4S)-3,4-dihydro-2H-chromen-4-yl]-4-(1H-1,2,3-triazol-1-yl)quinoline-3-carboxamide], the EC50 in data set [1] was less than 0.1 µg/mL. In data set [5], this compound displayed a chromatographic logP of 4.5. This compound also had a pEC50 in data set [6] of 7.50 to 8.50.

With `O=C(N[C@H]1CCOc2ccccc21)c1cnc2c(-c3cc(Cl)cc(Cl)c3)cccc2c1-n1nccn1` [Example 189, 8-(3,5-dichlorophenyl)-N-[(4S)-3,4-dihydro-2H-chromen-4-yl]-4-(2H-1,2,3-triazol-2-yl)quinoline-3-carboxamide], the EC50 in data set [1] was less than 0.1 µg/mL. For the same compound, the inhibition at 1 µg/mL in data set [4] was greater than 80%. For the same compound, the chromatographic logP in data set [5] is 5. Further, the pEC50 in data set [6] was greater than 8.50.

Regarding `CN(CCN1CCCC1=O)c1c(C(=O)N[C@H]2CCOc3ccccc32)cnc2c(-c3cc(Cl)cc(Cl)c3)cccc12` [Example 328], the “logP (Method L0)^[a]” value in data set [5] was 3.3.

In the case of `O=C(N[C@H]1CCOc2ccccc21)c1cnc2c(-c3cc(Cl)cc(Cl)c3)cccc2c1C1CC1` [Example 358], in data set [5], the “logP (Method L0)^[a]” value came to 4.9.

As to `CCSc1c(C(=O)N[C@H]2CCOc3ccccc32)cnc2c(-c3cccc(Cl)c3Cl)cccc12` [Example 366], the “logP (Method L0)^[a]” value in data set [5] worked out at 4.79.

With `CCSc1c(C(=O)N[C@H]2CCOc3ccccc32)cnc2c(-c3cc(Cl)cc(Cl)c3)cccc12` [Example 367], in data set [5], the “logP (Method L0)^[a]” value is 5.48.

For `CC[S+]([O-])c1c(C(=O)N[C@H]2CCOc3ccccc32)cnc2c(-c3cccc(Cl)c3Cl)cccc12` (some centres unmarked) [Example 368], the “logP (Method L0)^[a]” value in data set [5] is reported as 3.76.

For `CC[S+]([O-])c1c(C(=O)N[C@H]2CCOc3ccccc32)cnc2c(-c3cc(Cl)cc(Cl)c3)cccc12` (some centres unmarked) [Example 370], the “logP (Method L0)^[a]” value in data set [5] was 4.44.

For `CCS(=O)(=O)c1c(C(=O)N[C@H]2CCOc3ccccc32)cnc2c(-c3cc(Cl)cc(Cl)c3)cccc12` [Example 371], the “logP (Method L0)^[a]” value in data set [5] turned out to be 4.54.

On to `Cc1nc2c(-c3cccc(Cl)c3Cl)cccc2c(N(C)C)c1C(=O)N[C@H]1CCOc2ccccc21` [Example 523], for which, in data set [5], the “logP (Method L0)^[a]” value is recorded as 2.11.

In the case of `O=C(N[C@H]1CCOc2ccccc21)c1cnc2c(-c3cc(F)cc(F)c3F)c(F)ccc2c1N1CCOCC1` [Example 540], the “logP (Method L0)^[a]” value in data set [5] came out at 3.72.

With `CNc1c(C(=O)N[C@H]2CCOc3ccccc32)cnc2c(-c3cc(F)c(OC(F)F)c(F)c3)c(F)ccc12` [Example 547], in data set [5], the “logP (Method L0)^[a]” value came to 1.81.

For `O=C(N[C@H]1CCOc2ccccc21)c1cnc2c(-c3cc(F)cc(F)c3F)c(Cl)ccc2c1N1CCOCC1` [Example 576], the “logP (Method L0)^[a]” value in data set [5] came to 3.90.
